Data from patent US9376424B2, “Methods for treating post traumatic stress disorder” (AZEVAN PHARMACEUTICALS, INC., priority 2010, dated 2016).

Columns and labels:
human V1a receptor = target: T1, human V1a receptor (Homo sapiens, UniProt P37288); test: Human vasopressin V1a receptor binding assay (3H-AVP competition, hV1a cell line); conditions: CHO cells expressing human V1a, 1 nM 3H-AVP; for IC50: read-out: V1a Binding Affinity IC50; for Ki: read-out: V1a Ki
T1 construct: host or cells: CHO cells
T1 sequence (P37288 whole entry): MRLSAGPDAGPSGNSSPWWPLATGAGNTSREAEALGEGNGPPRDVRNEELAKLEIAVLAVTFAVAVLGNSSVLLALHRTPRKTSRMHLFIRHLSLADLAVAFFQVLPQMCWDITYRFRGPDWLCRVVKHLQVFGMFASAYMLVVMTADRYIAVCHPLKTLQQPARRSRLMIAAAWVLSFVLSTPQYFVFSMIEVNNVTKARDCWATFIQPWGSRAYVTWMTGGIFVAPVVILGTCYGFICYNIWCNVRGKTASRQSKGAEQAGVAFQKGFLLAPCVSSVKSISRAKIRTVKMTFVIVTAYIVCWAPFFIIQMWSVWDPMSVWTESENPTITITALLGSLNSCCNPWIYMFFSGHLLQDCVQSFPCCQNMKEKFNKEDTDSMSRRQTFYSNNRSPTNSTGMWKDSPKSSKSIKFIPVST
Experimental: Human vasopression V1a receptor binding assay. A cell line expressing the human V1a receptor in CHO cells (henceforth referred to as the hV1a cell line) was obtained from Dr. Michael Brownstein, NIMH, Bethesda, Md., USA. The hV1a cDNA sequence is described by Thibonnier et al., Journal of Biological Chemistry, 269, 3304-3310 (1994), and the expression method was the same as described by Morel et al. (1992). The hV1a cell line was grown in alpha-MEM with 10% fetal bovine serum and 250 ug/ml G418 (Gibco, Grand Island, N.Y., USA). For competitive binding assay, hV1a cells were plated into 6-well culture plate at 1:10 dilution from a confluency flask, and maintained in culture for at least two days. Culture medium was then removed, cells were washed with 2 ml binding buffer (25 mM Hepes, 0.25% BSA, 1×DMEM, PH=7.0). To each well, 990 μl binding buffer containing 1 nM 3H-AVP was added, and followed by 10 μl series diluted Example compounds dissolved in DMSO. […] 100 nM cold AVP (Sigma) was used to assess non-specific binding. Cells were incubated for 45 minutes at 37° C., assay mixture was removed and each well was washed three times with PBS (pH=7.4). 1 ml 2% SDS was added per well and plates were let sit for 30 minutes. The whole content in a well was transferred to a scintillation vial. Each well was rinsed with 0.5 ml PBS which was then added to the corresponding vial. Scintillation fluid (Ecoscint, National Diagnostics, Atlanta, Ga.) was then added at 3 ml per vial. Samples were counted in a liquid scintillation counter (Beckman LS3801). IC50 values were calculated by Prism Curve fitting software.
All of the alkanedioic esters and amides exemplified in the foregoing examples dissolved in DMSO were tested in this assay. Binding curves were generated according to methods described by Thibonnier et al. (1994). [^3H]-AVP was added to the hV1a cell cultures followed by 10-fold dilutions of each test compound.

C57B1/6J males = test: Social Interaction Test after chronic social subjugation; type: in vivo, mouse; conditions: for Distance (traveled in the interaction zone, difference score Post-Pretest) / Time (in the interaction zone, difference score Post-Pretest): mice after 10 day defeat, daily i.p. for 28 days, AVN246-HCl 2 mg/kg, chlordiazepoxide 10 mg/kg
Excerpt: Mouse Chronic Subordination Model of Depression. Social stress is a factor in the etiology of several psychopathologies, with individuals differing in vulnerability. Adult male mice are subjected to a model of chronic psychosocial stress in which resident/intruder dyads live chronically in sensory contact and physically interact on a daily basis.
Anti-depressant Effect in the Social Interaction Test. […] A rapid subjugation paradigm in mice lead to diminished social interaction behavior, where the dependent measures are distance traveled and time in the Interaction Zone. […] These observations are consistent with the subordination/social interaction model as a rapid behavioral screen for potential antidepressants. Additional details are described in Berton et al. (2006).
Briefly, C57B1/6J males were defeated daily for 10 days by resident, highly aggressive CF-1 males. After 5 minutes of direct exposure, a perforated plastic partition was inserted into the cage that allowed olfactory and visual contact without physical defeat for the remaining 23 hr 55 min each day. The C57 males were exposed to a different resident male in a different cage each day to increase the stress of the procedure (it was observed that all CF-1 males attacked the intruder each day). At the end of the 10 day defeat procedure, the C57 males were tested in an open field apparatus during the dark phase. A dominant male was caged in an area of the open field apparatus termed the “social interaction zone.” Time and distance traveled in the zone were recorded. The C57 males were then divided randomly among the following treatments: AVN246-HCl (2 mg/kg), saline vehicle (0.45%), or chlordiazepoxide (10 mg/kg). Treatments were given daily (i.p.) for 28 days and the animals were retested. Behavioral changes were determined by calculating difference scores (Post-Pretest) and these scores were analyzed.

Row | Compound | IC50 (human V1a receptor) | Ki (human V1a receptor) | further results
1 | O=C(NC1CCc2ccccc21)C(CCC(=O)N1CCN(C2CCCCC2)CC1)N1C(=O)C(N2C(=O)OCC2c2ccccc2)C1C=Cc1ccccc1 (mixture of isomers) [Example 216] | 1.83 nM | 1.12 nM | 
2 | O=C(NCc1ccccc1C(F)(F)F)[C@H](CCC(=O)N1CCN(C2CCCCC2)CC1)N1C(=O)[C@@H](N2C(=O)OC[C@@H]2c2ccccc2)[C@H]1/C=C/c1ccccc1 [Example 182] |  | 0.93 nM | 
3 | O=C(C(COCc1ccccc1)N1C(=O)C(N2C(=O)OCC2c2ccccc2)C1C=Cc1ccccc1)N1CCC(CN2CCCCC2)CC1 (stereo not shown) [Example 233A] |  | 11.6 nM | 
4 | O=C(NCc1cc(C(F)(F)F)ccc1F)[C@H](CCC(=O)N1CCN(C2CCCCC2)CC1)N1C(=O)[C@@H](N2C(=O)OC[C@@H]2c2ccccc2)[C@H]1/C=C/c1ccccc1 [Example 177] |  | 0.41 nM | 
5 | O=C(NCc1cc(F)cc(C(F)(F)F)c1)[C@H](CCC(=O)N1CCN(C2CCCCC2)CC1)N1C(=O)[C@@H](N2C(=O)OC[C@@H]2c2ccccc2)[C@H]1/C=C/c1ccccc1 [Example 179] |  | 0.51 nM | 
6 | O=C(NCc1cccc(C(F)(F)F)c1)[C@H](CCC(=O)N1CCN(C2CCCCC2)CC1)N1C(=O)[C@@H](N2C(=O)OC[C@@H]2c2ccccc2)[C@H]1/C=C/c1ccccc1 [Example 120H] | 2.75 nM | 1.68 nM | 
7 | O=C(NCc1cccc(C(F)(F)F)c1)C(CC(=O)N1CCN(CCN2CCCC2)CC1)N1C(=O)C(N2C(=O)OCC2c2ccccc2)C1C=Cc1ccccc1 (stereo not shown) [Example 78] | < 100 nM |  | 
8 | CN(Cc1cccc(C(F)(F)F)c1)C(=O)[C@@H](CC(=O)N1CCC(N2CCCCC2)CC1)N1C(=O)[C@@H](N2C(=O)OC[C@@H]2c2ccccc2)[C@H]1/C=C/c1cccc(Cl)c1 [Example 247] | 0.6 nM | 0.39 nM | 
9 | O=C(N[C@@H]1CCCc2ccccc21)[C@H](CCC(=O)N1CCN(C2CCCCC2)CC1)N1C(=O)[C@@H](N2C(=O)OC[C@@H]2c2ccccc2)[C@H]1/C=C/c1ccco1 [Example 254] | 10 nM | 6.2 nM | 
10 | CC(NC(=O)C(CC(=O)N1CCC(N2CCCCC2)CC1)N1C(=O)C(N2C(=O)OCC2c2ccccc2)C1C=Cc1ccccc1)c1ccccc1.Cl (stereo not shown) [AVN246-HCl] |  |  | Distance (traveled in the interaction zone, difference score Post-Pretest) (C57B1/6J males): 22 ± 6; Time (in the interaction zone, difference score Post-Pretest) (C57B1/6J males): 35 ± 10; effect on deficits in social interaction produced by chronic subordination (C57B1/6J males; mice, 28-day treatment regimen): significantly increased both distance traveled and time in the interaction zone
11 | O=C(NCc1cccc(Cl)c1)[C@H](CCC(=O)N1CCN(C2CCCCC2)CC1)N1C(=O)[C@@H](N2C(=O)OC[C@@H]2c2ccccc2)[C@H]1/C=C/c1ccccc1 [Example 187] |  | 0.66 nM | 
12 | O=C(NCc1cccc(Cl)c1Cl)[C@H](CCC(=O)N1CCN(C2CCCCC2)CC1)N1C(=O)[C@@H](N2C(=O)OC[C@@H]2c2ccccc2)[C@H]1/C=C/c1ccccc1 [Example 176] |  | 0.38 nM | 
13 | O=C(CCC(C(=O)NCc1cccc(C(F)(F)F)c1)N1C(=O)C(N2C(=O)OCC2c2ccccc2)C1C=Cc1ccccc1)NCCN1CCCCC1 (stereo not shown) [Example 87] | 15 nM |  | 
14 | CNC1=Nc2ccc(Cl)cc2C(c2ccccc2)=[N+]([O-])C1 [CDP, chlordiazepoxide] |  |  | Distance (traveled in the interaction zone, difference score Post-Pretest) (C57B1/6J males): 1.0 ± 5; Time (in the interaction zone, difference score Post-Pretest) (C57B1/6J males): 0.0 ± 5^
15 | O=C(NCc1cccc(C(F)(F)F)c1)[C@H](CCC(=O)N1CCC(CN2CCCCC2)CC1)N1C(=O)[C@@H](N2C(=O)OC[C@@H]2c2ccccc2)[C@H]1/C=C/c1ccccc1 [Example 120E] | 3.2 nM | 1.95 nM | 
16 | CCCCN(Cc1ccccc1)C(=O)[C@H](CCC(=O)N1CCN(C2CCCCC2)CC1)N1C(=O)[C@@H](N2C(=O)OC[C@@H]2c2ccccc2)[C@H]1/C=C/c1ccccc1 [Example 198] | ~100 nM |  | 
17 | O=C(NCc1cc(C(F)(F)F)cc(C(F)(F)F)c1)[C@H](CCC(=O)N1CCN(C2CCCCC2)CC1)N1C(=O)[C@@H](N2C(=O)OC[C@@H]2c2ccccc2)[C@H]1/C=C/c1ccccc1 [Example 188] |  | 4.45 nM | 
18 | O=C(NCc1cc(Cl)cc(Cl)c1)[C@H](CCC(=O)N1CCN(C2CCCCC2)CC1)N1C(=O)[C@@H](N2C(=O)OC[C@@H]2c2ccccc2)[C@H]1/C=C/c1ccccc1 [Example 185] | 1.27 nM | 0.82 nM | 
19 | O=C(N[C@@H]1CCCc2ccccc21)[C@H](CCC(=O)N1CCN(C2CCCCC2)CC1)N1C(=O)[C@@H](N2C(=O)OC[C@@H]2c2ccccc2)[C@H]1/C=C/c1cccs1 [Example 255] | 1.9 nM | 1.2 nM | 
20 | C[C@@H](NC(=O)[C@@H](CC(=O)N1CCC(N2CCCCC2)CC1)N1C(=O)[C@@H](N2C(=O)OC[C@@H]2c2cccc(Cl)c2)[C@H]1/C=C/c1ccccc1)c1ccccc1 [Example 256] | 2.8 nM | 1.7 nM | 
21 | O=C(NCc1cccc(C(F)(F)F)c1F)[C@H](CCC(=O)N1CCN(C2CCCCC2)CC1)N1C(=O)[C@@H](N2C(=O)OC[C@@H]2c2ccccc2)[C@H]1/C=C/c1ccccc1 [Example 180] |  | 0.2 nM | 
22 | CC(C(=O)NCc1cccc(C(F)(F)F)c1)(C(=O)N1CCC(N2CCCCC2)CC1)N1C(=O)[C@@H](N2C(=O)OC[C@@H]2c2ccccc2)[C@H]1/C=C/c1ccccc1 (mixture of isomers) [Example 234, (2RS)-[4-(piperidinyl)piperidinylcarbonyl]-2-methyl-2-[3(S)-(4(S)-phenyloxazolidin-2-on-3-yl)-4(R)-(2-styryl)azetidin-2-on-1-yl]acetic acid N-(3-trifluoromethylbenzyl)amide] | 2.37 nM | 1.45 nM | 
